What is called IC50 is the midpoint of a concentration-inhibition curve.

The structures appear in SMILES notation.

Among the data in ChEMBL document CHEMBL1153401, “Role of the hydrogen bonding heteroatom-Lys53 interaction between the p38alpha mitogen-activated protein (MAP) kinase and pyridinyl-substituted 5-membered heterocyclic ring inhibitors” (J Med Chem, 2009) are IC50 values, retold here.

For this test, the target named is Mitogen-activated protein kinase 14 (Homo sapiens, UniProt Q16539). Briefly: Inhibition of p38alpha MAP kinase.
Chain of Mitogen-activated protein kinase 14 (Q16539 whole entry): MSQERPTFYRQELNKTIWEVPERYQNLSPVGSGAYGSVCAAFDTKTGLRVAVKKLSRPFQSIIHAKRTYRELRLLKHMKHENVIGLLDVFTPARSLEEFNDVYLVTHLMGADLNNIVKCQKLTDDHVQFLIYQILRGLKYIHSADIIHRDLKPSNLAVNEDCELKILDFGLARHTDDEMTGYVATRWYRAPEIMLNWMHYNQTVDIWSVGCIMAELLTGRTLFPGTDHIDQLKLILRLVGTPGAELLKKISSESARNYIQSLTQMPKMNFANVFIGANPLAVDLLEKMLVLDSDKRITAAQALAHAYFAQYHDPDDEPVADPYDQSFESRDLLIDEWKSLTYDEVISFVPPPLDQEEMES
The compound `Fc1ccc(-c2occc2-c2ccncc2)cc1` showed an IC50 of 740 nM.

As to `Fc1ccc(C2=C(c3ccncc3)CCC2)cc1`, the IC50 was determined as 4050 nM.

`Fc1ccc(-c2nc[nH]c2-c2ccncc2)cc1` displayed an IC50 of 79 nM.

With `Fc1ccc(-c2[nH]ccc2-c2ccncc2)cc1`, the IC50 was determined as 420 nM.
